According to patent US8129592B2, “Plant isoflavonoid hydroxylases and methods of use thereof” (The Samuel Roberts Noble Foundation, Inc., priority 2003, dated 2012):
Marks after values point to notes of the source that are not given here.

T1: MtCYP81E8 (Medicago truncatula, UniProt Q6WNQ8)
T1 construct: The full length CYP81E8 cDNA was directly excised from its original clone; made in house; host or cells: Saccharomyces cerevisiae WAT11, vector YeDP60; microsomal fraction
T1 sequence (Q6WNQ8 1-499): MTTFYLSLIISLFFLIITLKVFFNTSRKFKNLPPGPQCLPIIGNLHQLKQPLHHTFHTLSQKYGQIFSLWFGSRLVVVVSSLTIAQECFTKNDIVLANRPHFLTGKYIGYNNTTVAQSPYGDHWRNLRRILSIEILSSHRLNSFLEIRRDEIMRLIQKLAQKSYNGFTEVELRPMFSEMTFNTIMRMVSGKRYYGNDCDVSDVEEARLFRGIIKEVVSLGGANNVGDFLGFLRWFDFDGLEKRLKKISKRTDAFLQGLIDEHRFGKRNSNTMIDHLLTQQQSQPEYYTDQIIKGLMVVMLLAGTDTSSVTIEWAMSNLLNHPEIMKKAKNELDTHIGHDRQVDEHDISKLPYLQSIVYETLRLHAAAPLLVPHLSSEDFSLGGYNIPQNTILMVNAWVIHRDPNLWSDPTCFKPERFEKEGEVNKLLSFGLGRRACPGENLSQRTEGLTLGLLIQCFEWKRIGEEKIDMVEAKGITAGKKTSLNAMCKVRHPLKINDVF

T2: I2′H (MtCYP81E7) (Medicago truncatula, UniProt Q6WNR0)
T2 construct: The open reading frame of MtCYP81E7 was amplified with forward primer; made in house; host or cells: Saccharomyces cerevisiae WAT11, vector YeDP60; microsomal fraction
T2 sequence (Q6WNR0 1-498): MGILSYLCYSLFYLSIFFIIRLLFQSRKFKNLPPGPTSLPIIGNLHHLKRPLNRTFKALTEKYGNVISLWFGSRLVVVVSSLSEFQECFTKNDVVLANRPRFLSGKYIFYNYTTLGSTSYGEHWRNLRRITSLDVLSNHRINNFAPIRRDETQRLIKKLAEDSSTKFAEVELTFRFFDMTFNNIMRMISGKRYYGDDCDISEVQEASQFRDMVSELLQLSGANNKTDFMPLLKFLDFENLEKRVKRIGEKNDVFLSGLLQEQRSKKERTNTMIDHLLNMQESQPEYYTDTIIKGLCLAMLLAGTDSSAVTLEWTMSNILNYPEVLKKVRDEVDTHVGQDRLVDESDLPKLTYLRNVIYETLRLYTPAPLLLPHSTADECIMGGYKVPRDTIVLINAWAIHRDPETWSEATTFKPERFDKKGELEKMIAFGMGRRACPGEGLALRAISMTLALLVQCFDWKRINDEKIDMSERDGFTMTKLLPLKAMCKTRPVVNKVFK

T3: I3′H (MtCYP81E9) (Medicago truncatula, UniProt Q6WNQ9)
T3 construct: made in house; host or cells: Saccharomyces cerevisiae WAT11, vector YeDP60; microsomal fraction
T3 sequence (Q6WNQ9 with tags, fused parts or gaps limits assumed): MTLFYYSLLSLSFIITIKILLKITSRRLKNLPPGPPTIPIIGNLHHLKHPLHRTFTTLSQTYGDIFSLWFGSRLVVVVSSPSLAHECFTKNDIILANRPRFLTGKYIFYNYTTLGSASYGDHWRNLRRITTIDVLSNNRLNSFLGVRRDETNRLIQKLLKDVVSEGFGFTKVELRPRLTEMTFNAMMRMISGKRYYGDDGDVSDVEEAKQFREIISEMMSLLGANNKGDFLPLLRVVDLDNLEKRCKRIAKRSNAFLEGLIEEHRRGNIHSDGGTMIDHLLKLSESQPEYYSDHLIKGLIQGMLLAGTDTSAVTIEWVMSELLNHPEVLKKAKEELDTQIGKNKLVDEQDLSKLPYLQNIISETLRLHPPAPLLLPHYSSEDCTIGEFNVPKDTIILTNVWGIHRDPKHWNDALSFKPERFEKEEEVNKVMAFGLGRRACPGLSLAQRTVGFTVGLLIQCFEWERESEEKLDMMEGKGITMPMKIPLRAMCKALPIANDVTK


What was measured:
MtCYP81E8 = molecular target: T1, MtCYP81E8; experiment: Hydroxylase assay with yeast microsomes expressing recombinant MtCYP81E8; format: biochemical; settings: standard assay conditions, or at different pH values and NADPH concentrations
Protocol: (§1) PCR products were digested with BamHI and KpnI and ligated into the yeast expression vector YeDP60 following BamHI/KpnI digestion. MtCYP81E8 was directly excised from the original clone in pBSK(+) by BamHI and KpnI and inserted into YeDP60. All constructs were sequenced to ensure that there were no PCR-introduced errors. […] After induction with 20% galactose for ˜18 h, yeast cells was harvested, weighed, and immediately processed for microsomal fractionation.
(§2) After incubation at ˜80 rpm for 30 to 40 min, spheroplasts were centrifuged down for 5 min, washed twice with Zymolyase buffer B, and then twice with phosphate buffer A (0.1 M potassium phosphate pH 8.0, 1 M sorbitol, 14 mM 2-mercaptoethanol). The spheroplasts were re-suspended in a minimum vol of phosphate buffer B (0.1 M potassium phosphate pH 8.0, 0.4 M sucrose, 14 mM β-mercaptoethanol, 1 mM PMSF and 1× […] (Roche Diagnostics GmbH, Mannheim, German), and 1 vol of glass beads (diameter at 0.45/0.50 mm) was added. Samples were vigorously vortexed at 4° C., with the quality of cell disruption checked under the microscope. The supernatant was then removed and the beads washed four times with phosphate buffer B. Supernatants were pooled and centrifuged at 12,000 g for 10 min; the resulting supernatant was then ultracentrifuged at 140,000 g for 90 min. The supernatant was discarded and the pellet washed briefly with phosphate buffer C (0.1 M potassium phosphate, pH 8.0, 0.4 M sucrose, 0.5 mM glutathione), and re-suspended in the same buffer plus 5% glycerol at about 12 mg total protein/ml. Protein was quantified using a Bio-Rad protein assay kit (Bio-Rad, Hercules, Calif.).
(§3) Hydroxylase assays were performed in phosphate buffer C in a total volume of 150 μl containing 2 mM NADPH, 40 μM isoflavone substrate and 40˜70 pmol P450 protein. […] The extracts were combined, evaporated under N2, re-suspended in 60 μl of methanol, and analyzed by HPLC or LC-MS. All assays to determine enzyme specificity were carried out in duplicate. For kinetic studies, the isoflavone concentration was varied at a fixed concentration of NADPH (2 mM), and kinetic constants calculated from initial rate data using Lineweaver-Burke double reciprocal plots. All kinetic analyses were carried out in triplicate.
(§4) Reaction products from enzyme assays (30 μl) were analyzed by HPLC.

I2′H (MtCYP81E7) = molecular target: T2, I2′H (MtCYP81E7); experiment: Hydroxylase assay with yeast microsomes expressing recombinant MtCYP81E7 (I2′H); format: biochemical; settings: for Substrate specificity of I2′H (MtCYP81E7), relative activity: 100% = biochanin A, a = sum of putative 2′ and/or 3′-hydroxylated products, ND = activities not detectable
Protocol: as §1, §2, §3, §4
(§5) Product identification was firstly based on comparisons of chromatographic behavior and UV spectra with authentic standards. Identifications were then confirmed by HPLC-MS, using a HP 1100 liquid chromatograph coupled to a Bruker Esquire Ion-Trap mass spectrometer equipped with an electrospray source. HPLC separation was achieved using a J. T. Baker Bakerbond reverse-phase column (C18, 5 μm, 4.6 mm×250 mm, J. T. Baker, Philipsberg, N.J.). Samples were eluted with the gradient described above but with 0.1% aqueous acetic acid replacing the 1% phosphoric acid. Ion charge control was set at 30,000 with a max acquire time of 100 ms. Mass spectra were recorded over a range of 50-2200 m/z.

I3′H (MtCYP81E9) = molecular target: T3, I3′H (MtCYP81E9); experiment: Hydroxylase assay with yeast microsomes expressing recombinant MtCYP81E9 (I3′H); format: biochemical; settings: for Substrate specificity of I3′H (MtCYP81E9), relative activity: 100% = biochanin A, a = sum of putative 2′ and/or 3′-hydroxylated products, b = sum of all the products, ND = activities not detectable
Protocol: as §1, §2, §3, §4, §5

[1] = substrate: COc1ccc(-c2coc3cc(O)cc(O)c3c2=O)cc1; experiment: Hydroxylase assay with yeast microsomes expressing recombinant MtCYP81E7 (I2′H); format: biochemical, Medicago truncatula; settings: other: 2 mM NADPH and pH 8.0, 25.0 °C
Protocol: (§6) After incubation at ˜80 rpm for 30 to 40 min, spheroplasts were centrifuged down for 5 min, washed twice with Zymolyase buffer B, and then twice with phosphate buffer A (0.1 M potassium phosphate pH 8.0, 1 M sorbitol, 14 mM 2-mercaptoethanol). The spheroplasts were re-suspended in a minimum vol of phosphate buffer B (0.1 M potassium phosphate pH 8.0, 0.4 M sucrose, 14 mM β-mercaptoethanol, 1 mM PMSF and 1× protein inhibitor cocktail (Roche Diagnostics GmbH, Mannheim, German), and 1 vol of glass beads (diameter at 0.45/0.50 mm) was added. Samples were vigorously vortexed at 4° C., with the quality of cell disruption checked under the microscope. The supernatant was then removed and the beads washed four times with phosphate buffer B. Supernatants were pooled and centrifuged at 12,000 g for 10 min; the resulting supernatant was then ultracentrifuged at 140,000 g for 90 min. The supernatant was discarded and the pellet washed briefly with phosphate buffer C (0.1 M potassium phosphate, pH 8.0, 0.4 M sucrose, 0.5 mM glutathione), and re-suspended in the same buffer plus 5% glycerol at about 12 mg total protein/ml. Protein was quantified using a Bio-Rad protein assay kit (Bio-Rad, Hercules, Calif.).
(§7) Hydroxylase assays were performed in phosphate buffer C in a total volume of 150 μl containing 2 mM NADPH, 40 μM isoflavone substrate and 40˜70 pmol P450 protein. Reactions were incubated at 25° C. for 1.5 h (over which period the reactions were linear) with gentle shaking and stopped by extracting twice with 500 μl of ethyl acetate. The extracts were combined, evaporated under N2, re-suspended in 60 μl of methanol, and analyzed by HPLC or LC-MS. All assays to determine enzyme specificity were carried out in duplicate. For kinetic studies, the isoflavone concentration was varied at a fixed concentration of NADPH (2 mM), and kinetic constants calculated from initial rate data using Lineweaver-Burke double reciprocal plots. All kinetic analyses were carried out in triplicate.
(§8) Product identification was firstly based on comparisons of chromatographic behavior and UV spectra with authentic standards. Identifications were then confirmed by HPLC-MS, using a HP 1100 liquid chromatograph coupled to a Bruker Esquire Ion-Trap mass spectrometer equipped with an electrospray source. HPLC separation was achieved using a J. T. Baker Bakerbond reverse-phase column (C18, 5 μm, 4.6 mm×250 mm, J. T. Baker, Philipsberg, N.J.). […] Mass spectra were recorded over a range of 50-2200 m/z.

[2] = substrate: COc1ccc(-c2coc3cc(O)ccc3c2=O)cc1; experiment: as above; format: biochemical, Medicago truncatula; settings: other: 2 mM NADPH and pH 8.0, 25.0 °C
Protocol: as §6, §7, §8

Row | Molecule | Activity of MtI2′H with substrate (in words) (I2′H (MtCYP81E7)) | Substrate specificity of I2′H (MtCYP81E7), relative activity (I2′H (MtCYP81E7); isoflavone 40 μM) | Activity of MtI3′H with substrate (in words) (I3′H (MtCYP81E9)) | Substrate specificity of I3′H (MtCYP81E9), relative activity (I3′H (MtCYP81E9); isoflavone 40 μM) | further results
1 | O=c1cc(-c2ccc(O)cc2)oc2cc(O)cc(O)c12 [apigenin] | – | – | – | – | Activity of recombinant MtCYP81E8 with substrate (in words) (MtCYP81E8): no activity
2 | O=c1cc(-c2ccc(O)c(O)c2)oc2cc(O)cc(O)c12 [luteolin] | – | – | – | – | Activity of recombinant MtCYP81E8 with substrate (in words) (MtCYP81E8): no activity
3 | O=C1C[C@@H](c2ccc(O)cc2)Oc2cc(O)cc(O)c21 [narigenin] | – | – | – | – | Activity of recombinant MtCYP81E8 with substrate (in words) (MtCYP81E8): no activity
4 | O=c1c(-c2ccc3c(c2)OCO3)coc2cc(O)ccc12 [Pseudobaptigenin] | active | 35% | low activity | 7.6%^a | –
5 | COc1cc(O)c2c(=O)c(-c3ccc(O)cc3)coc2c1 [Prunetin] | Neither enzyme hydroxylated | – | Neither enzyme hydroxylated | – | –
6 | COc1ccc2c(=O)c(-c3ccc(O)cc3)coc2c1 [Isoformononetin] | Neither enzyme hydroxylated | – | Neither enzyme hydroxylated | – | –
7 | COc1ccc(-c2coc3cc(O)ccc3c2=O)cc1 [Formononetin, 7-hydroxy, 4′-methoxyisoflavone] | – | 37.2% | – | 50% | –
8 | COc1ccc(-c2coc3cc(O)ccc3c2=O)cc1O [3′-Hydroxyformononetin] | negligible activity | 4.7% | – | – | –
9 | O=C1C[C@@H](c2ccc(O)cc2)Oc2cc(O)ccc21 [liquiritigenin] | – | – | – | – | Activity of recombinant MtCYP81E8 with substrate (in words) (MtCYP81E8): no activity
10 | COc1ccc(-c2coc3cc(O)cc(O)c3c2=O)cc1 [Biochanin A] | – | 100% | – | 100% | Activity corresponding to 100%, 2′-hydroxylation (I2′H (MtCYP81E7); isoflavone 40 μM, 2 mM NADPH): 53.8 pmol/pmol protein/h; Activity corresponding to 100%, 3′-hydroxylation (I3′H (MtCYP81E9); isoflavone 40 μM, 2 mM NADPH): 98.56 pmol pmol^−1 protein h^−1
11 | O=c1c(-c2ccc(O)cc2)coc2cc(O)ccc12 [Daidzein, 7,4′-dihydroxyisoflavone] | weak activity | 18.6%^a | low activity | 1.73%^a | –
12 | COc1ccc(-c2coc3cc(O)ccc3c2=O)c(O)c1 [2′-Hydroxyformononetin] | negligible activity | 9.1%^a | more active | 39.34%^b | –
13 | NADPH | – | – | – | – | Km (I2′H (MtCYP81E7); read-out: apparent KM value of MtCYP81E7 for NADPH): ~0.17 µM
14 | O=c1c(-c2ccc(O)cc2)coc2cc(O)cc(O)c12 [Genistein, 5,7,4′-trihydroxyisoflavone] | weak activity | 10.2%^a | – | 19.13%^a | –
15 | I2′H (MtCYP81E7) (Medicago truncatula) (protein, The open reading frame of MtCYP81E7 was amplified with forward primer; made in house; host or cells: Saccharomyces cerevisiae WAT11, vector YeDP60; microsomal fraction) MGILSYLCYSLFYLSIFFIIRLLFQSRKFKNLPPGPTSLPIIGNLHHLKRPLNRTFKALTEKYGNVISLWFGSRLVVVVSSLSEFQECFTKNDVVLANRPRFLSGKYIFYNYTTLGSTSYGEHWRNLRRITSLDVLSNHRINNFAPIRRDETQRLIKKLAEDSSTKFAEVELTFRFFDMTFNNIMRMISGKRYYGDDCDISEVQEASQFRDMVSELLQLSGANNKTDFMPLLKFLDFENLEKRVKRIGEKNDVFLSGLLQEQRSKKERTNTMIDHLLNMQESQPEYYTDTIIKGLCLAMLLAGTDSSAVTLEWTMSNILNYPEVLKKVRDEVDTHVGQDRLVDESDLPKLTYLRNVIYETLRLYTPAPLLLPHSTADECIMGGYKVPRDTIVLINAWAIHRDPETWSEATTFKPERFDKKGELEKMIAFGMGRRACPGEGLALRAISMTLALLVQCFDWKRINDEKIDMSERDGFTMTKLLPLKAMCKTRPVVNKVFK | – | – | – | – | Km [1]: 51 µM; kcat [1]: 0.033 s⁻¹; Km [2]: 67 µM; kcat [2]: 0.015 s⁻¹
